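These data come from cells grown in 96-well plates and exposed to compound for 48 hours at five concentrations. GI50 marks 50% less growth. TGI denotes the concentration required for complete inhibition of growth.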
Tests used:
Assay in all cases: growth of human tumour cells (NCI), 48 h
786-0 renal = tested on: 786-0 renal
A498 renal = tested on: A498 renal
A549 NSCLC = tested on: A549 NSCLC
ACHN renal = tested on: ACHN renal
BT-549 breast = tested on: BT-549 breast
CAKI-1 renal = tested on: CAKI-1 renal
CCRF-CEM leukemia = tested on: CCRF-CEM leukemia
COLO 205 colon = tested on: COLO 205 colon
DU-145 prostate = tested on: DU-145 prostate
EKVX NSCLC = tested on: EKVX NSCLC
HCC-2998 colon = tested on: HCC-2998 colon
HCT-116 colon = tested on: HCT-116 colon
HCT-15 colon = tested on: HCT-15 colon
HL-60(TB) leukemia = tested on: HL-60(TB) leukemia
HOP-62 NSCLC = tested on: HOP-62 NSCLC
HOP-92 NSCLC = tested on: HOP-92 NSCLC
HS 578T breast = tested on: HS 578T breast
HT29 colon = tested on: HT29 colon
IGROV1 ovarian = tested on: IGROV1 ovarian
K-562 leukemia = tested on: K-562 leukemia
KM12 colon = tested on: KM12 colon
LOX IMVI melanoma = tested on: LOX IMVI melanoma
M14 melanoma = tested on: M14 melanoma
MALME-3M melanoma = tested on: MALME-3M melanoma
MCF7 breast = tested on: MCF7 breast
MDA-MB-231 breast = tested on: MDA-MB-231 breast
MDA-MB-435 = tested on: MDA-MB-435
MDA-MB-468 breast = tested on: MDA-MB-468 breast
MOLT-4 leukemia = tested on: MOLT-4 leukemia
NCI-H226 lung = tested on: NCI-H226 lung
NCI-H23 lung = tested on: NCI-H23 lung
NCI-H460 lung = tested on: NCI-H460 lung
NCI-H522 lung = tested on: NCI-H522 lung
NCI/ADR-RES ovarian = tested on: NCI/ADR-RES ovarian
OVCAR-3 ovarian = tested on: OVCAR-3 ovarian
OVCAR-4 ovarian = tested on: OVCAR-4 ovarian
OVCAR-5 ovarian = tested on: OVCAR-5 ovarian
OVCAR-8 ovarian = tested on: OVCAR-8 ovarian
PC-3 prostate = tested on: PC-3 prostate
RPMI-8226 leukemia = tested on: RPMI-8226 leukemia
RXF 393 renal = tested on: RXF 393 renal
SF-268 CNS = tested on: SF-268 CNS
SF-295 CNS = tested on: SF-295 CNS
SF-539 CNS = tested on: SF-539 CNS
SK-MEL-2 melanoma = tested on: SK-MEL-2 melanoma
SK-MEL-28 melanoma = tested on: SK-MEL-28 melanoma
SK-MEL-5 melanoma = tested on: SK-MEL-5 melanoma
SK-OV-3 ovarian = tested on: SK-OV-3 ovarian
SN12C renal = tested on: SN12C renal
SNB-19 CNS = tested on: SNB-19 CNS
SNB-75 CNS = tested on: SNB-75 CNS
SR leukemia = tested on: SR leukemia
SW-620 colon = tested on: SW-620 colon
T-47D breast = tested on: T-47D breast
TK-10 renal = tested on: TK-10 renal
U251 CNS = tested on: U251 CNS
UACC-257 melanoma = tested on: UACC-257 melanoma
UACC-62 melanoma = tested on: UACC-62 melanoma
UO-31 renal = tested on: UO-31 renal

## O=C(N/N=C/c1ccc(-c2ccc(O)cc2)o1)c1[nH]c2ccc(Br)cc2c1-c1ccccc1
786-0 renal
  GI50: 1550 nM
  TGI: 8430 nM
A498 renal
  GI50: 8210 nM
  TGI: 21900 nM
A549 NSCLC
  GI50: 987 nM
  TGI: 16200 nM
ACHN renal
  GI50: 500 nM
  TGI: 8070 nM
BT-549 breast
  GI50: 415 nM
  TGI: 3740 nM
CAKI-1 renal
  GI50: 969 nM
  TGI: 15500 nM
CCRF-CEM leukemia
  GI50: 474 nM
  TGI: 26900 nM
COLO 205 colon
  GI50: 1900 nM
  TGI: 3930 nM
DU-145 prostate
  GI50: 366 nM
  TGI: 3850 nM
EKVX NSCLC
  GI50: 3440 nM
  TGI: 15200 nM
HCC-2998 colon
  GI50: 860 nM
  TGI: 3670 nM
HCT-116 colon
  GI50: 393 nM
  TGI: 3550 nM
HCT-15 colon
  GI50: 354 nM
  TGI: 5300 nM
HL-60(TB) leukemia
  GI50: 257 nM
  TGI: 713 nM
HOP-62 NSCLC
  GI50: 870 nM
  TGI: 19200 nM
HOP-92 NSCLC
  GI50: 2750 nM
  TGI: 11200 nM
HS 578T breast
  GI50: 410 nM
  TGI: 1290 nM
HT29 colon
  GI50: 1920 nM
  TGI: 7020 nM
IGROV1 ovarian
  GI50: 617 nM
  TGI: 17800 nM
K-562 leukemia
  GI50: 371 nM
  TGI: 17900 nM
KM12 colon
  GI50: 355 nM
  TGI: 4510 nM
LOX IMVI melanoma
  GI50: 356 nM
  TGI: 3220 nM
M14 melanoma
  GI50: 3330 nM
  TGI: 22800 nM
MALME-3M melanoma
  GI50: 2580 nM
  TGI: 22400 nM
MCF7 breast
  GI50: 332 nM
  TGI: 6660 nM
MDA-MB-231 breast
  GI50: 323 nM
  TGI: 790 nM
MDA-MB-435
  GI50: 248 nM
  TGI: 602 nM
MDA-MB-468 breast
  GI50: 318 nM
  TGI: 2660 nM
MOLT-4 leukemia
  GI50: 531 nM
  TGI: 5040 nM
NCI-H226 lung
  GI50: 2950 nM
  TGI: 22400 nM
NCI-H23 lung
  GI50: 378 nM
  TGI: 12700 nM
NCI-H460 lung
  GI50: 342 nM
  TGI: 1270 nM
NCI-H522 lung
  GI50: 208 nM
  TGI: 519 nM
NCI/ADR-RES ovarian
  GI50: 292 nM
  TGI: 592 nM
OVCAR-3 ovarian
  GI50: 275 nM
  TGI: 873 nM
OVCAR-4 ovarian
  GI50: 3560 nM
  TGI: 20800 nM
OVCAR-5 ovarian
  GI50: 515 nM
  TGI: 13800 nM
OVCAR-8 ovarian
  GI50: 363 nM
  TGI: 900 nM
PC-3 prostate
  GI50: 569 nM
  TGI: 14100 nM
RPMI-8226 leukemia
  GI50: 442 nM
  TGI: > 22200 nM
RXF 393 renal
  GI50: 414 nM
  TGI: 2180 nM
SF-268 CNS
  GI50: 654 nM
  TGI: 12700 nM
SF-295 CNS
  GI50: 611 nM
  TGI: 2900 nM
SF-539 CNS
  GI50: 240 nM
  TGI: 536 nM
SK-MEL-2 melanoma
  GI50: 378 nM
  TGI: 3680 nM
SK-MEL-28 melanoma
  GI50: 1960 nM
  TGI: 18000 nM
SK-MEL-5 melanoma
  GI50: 472 nM
  TGI: 1690 nM
SK-OV-3 ovarian
  GI50: 493 nM
  TGI: 16800 nM
SN12C renal
  GI50: 417 nM
  TGI: 2870 nM
SNB-19 CNS
  GI50: 577 nM
  TGI: 14600 nM
SNB-75 CNS
  GI50: 3130 nM
  TGI: 20000 nM
SR leukemia
  GI50: 490 nM
  TGI: 3230 nM
SW-620 colon
  GI50: 444 nM
  TGI: 16100 nM
T-47D breast
  GI50: 2670 nM
  TGI: 26500 nM
TK-10 renal
  GI50: 4560 nM
  TGI: 19600 nM
U251 CNS
  GI50: 419 nM
  TGI: 10300 nM
UACC-257 melanoma
  GI50: 4690 nM
  TGI: 23100 nM
UACC-62 melanoma
  GI50: 527 nM
  TGI: 15100 nM
UO-31 renal
  GI50: 2050 nM
  TGI: 16200 nM

From PubChem BioAssay (NCI)
